Data from patent US11319295B2, “Substituted phenyloxetane and phenyltetrahydrofuran compounds as indoleamine 2,3-dioxygenase (IDO) inhibitors” (MERCK SHARP & DOHME CORP., priority 2017, dated 2022).
Like-named read-outs stand apart in the source and are kept apart here.

Key:
IDO1 [1] = target: T1, IDO1 (Homo sapiens, UniProt P14902); experiment: IDO1 Human Whole Blood Assay; format: cell-based; set-up: Human whole blood was drawn in sodium heparin coated tubes from healthy internal donors; from tissue; host or cells: human whole blood from healthy donors, stimulated with LPS and IFNγ; details: LPS and IFNγ 100 ng/mL, 18 h, kynurenine by LC/MS/MS, form screened: Neutral
Protocol: IDO1 Human Whole Blood Assay
LPS and IFNγ was prepared in RPMI to a 10× of final conc. (1000 ng/mL), final concentration is 100 ng/mL.
Human whole blood was drawn in sodium heparin coated tubes from healthy internal donors. […] of blood was transferred to each of the wells of a v-bottom 96 well plate. […] of compound was transferred from intermediate dilution plate, and incubated for 15 min. 30 μL from stimulants was then transferred to blood and mixed thoroughly. Plate was covered with breathable membrane and incubated at 37° C. for overnight (18 h).
On day 2 isotope labeled standard of kynurenine and tryptophan was made in water at 10× concentration and […] was added to the blood at […] final concentration. The assay plates were centrifuged at 300×G for 10 min with no brake to separate plasma from red blood cells. […] of plasma samples was removed without disturbing red blood cells. Plasma was diluted with RPMI in 1:1 ratio and proteins were precipitated out with two volume of Acetonitrile. The plates was centrifuged at 4000×G for 60 min. 20 mL of supernatant was carefully transferred to a 384 well plate contain 40 mL of 0.1% formic acid in water and analyzed by LC/MS/MS.
LC/MS/MS analyses were performed using Thermo Fisher's LX4-TSQ Quantum Ultra system. This system consists of four Agilent binary high-performance liquid chromatography (HPLC) pumps and a TSQ Quantum Ultra triple quadruple MS/MS instrument. For each sample, […] were injected onto an Atlantis T3 column (2.1 mm×150 mm, […]) from Waters. The mobile phase gradient pumped at 0.8 mL/min was used to elute the analytes from the column at 25° C. […] Mobile phase A consisted of 0.1% formic acid in water. Mobile phase B consisted of 0.1% of formic acid in acetonitrile. Data was acquired in positive mode using a HESI interface. […] Compounds were titrated and IC50's were calculated by 4 parameter sigmoidal curve fitting formula.

TDO = TDO (Homo sapiens, UniProt P48775)
Protocol: TDO Cellular Assay in Frozen SW48 Cells
SW48 cells were cultured in complete RPMI culture medium (90% RPMI, 10% heat-inactivated fetal bovine serum).
SW48 and A2780 cells were dispensed to the respective wells of 384-well assay plates containing the compounds. The plates were incubated for about 48 hours at a 37° C., 5% CO2 incubator. Afterwards, 12 μL of 0.5 M ethyl isonipecotate (Sigma Aldrich, Cat #E33505) in dimethyl sulfoxide were added into each well and the plates were sealed and incubated at 37° C. without CO2 overnight. The plates were centrifuged for 1 minute at 200×g. The resulting fluorescence was measured in a Spectramax plate reader (Molecular Devices) with a 400 nm excitation filter and a 510 nm emission filter.
The fluorescence intensity of each well was corrected for the background observed in wells with A2780 cells and was expressed as a fraction of the intensity observed in wells of SW48 cells and DMSO only. Potencies were calculated by linear least squares fit to the four parameter logistic IC50 equation.

IDO1 [2] = target: T1, IDO1; experiment: IDO1 Cellular Assay in Hela Cells Stimulated with IFNγ; details: Hela IC50 (nM), Hela cells stimulated with IFNγ 100 ng/mL, 300 uM L-tryptophan, about 48 hours; form screened: Neutral
Protocol: Hela cells were cultured in complete Hela culture medium (90% EMEM, 10% heat-inactivated fetal bovine serum) and expanded to about 1×10^9 cells. The cells were then collected and frozen down at 1×10^7 cells/vial in 1 mL frozen medium (90% complete Hela culture medium, 10% DMSO)
Compounds to be tested were serially diluted in ten 3-fold steps in DMSO starting from 10 mM DMSO stocks in Echo low volume plate(s).
Hela cells with and without IFNγ were dispensed to the respective wells of 384-well assay plates containing the compounds. The plates were incubated for about 48 hours at a 37° C., 5% CO2 incubator. Afterwards, 12 mL of 0.5 M methyl isonipecotate in dimethyl sulfoxide were added into each well and the plates were sealed and incubated at 37° C. without CO2 overnight. The plates were centrifuged for 1 min at 200×g. The resulting fluorescence was measured in a Spectramax plate reader (Molecular Devices) with a 400 nm excitation filter and a 510 nm emission filter.
Potencies were calculated by linear least squares fit to the four parameter logistic IC50 equation.

[3] = read-out: SW48 IC50, SW48 cells, 300 uM L-tryptophan, about 48 hours, form screened: Neutral

TDO, sequence (P48775 whole entry): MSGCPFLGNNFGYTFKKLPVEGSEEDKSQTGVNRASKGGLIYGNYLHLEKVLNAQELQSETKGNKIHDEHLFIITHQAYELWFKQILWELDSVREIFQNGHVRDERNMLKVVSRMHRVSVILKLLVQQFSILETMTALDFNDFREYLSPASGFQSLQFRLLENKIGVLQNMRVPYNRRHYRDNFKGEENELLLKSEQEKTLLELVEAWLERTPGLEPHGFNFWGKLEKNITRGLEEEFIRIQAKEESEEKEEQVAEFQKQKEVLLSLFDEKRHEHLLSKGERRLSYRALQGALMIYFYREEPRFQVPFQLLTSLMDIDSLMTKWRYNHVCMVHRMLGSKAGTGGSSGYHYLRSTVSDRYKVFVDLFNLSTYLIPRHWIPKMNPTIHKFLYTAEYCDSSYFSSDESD
T1 sequence (P14902 whole entry): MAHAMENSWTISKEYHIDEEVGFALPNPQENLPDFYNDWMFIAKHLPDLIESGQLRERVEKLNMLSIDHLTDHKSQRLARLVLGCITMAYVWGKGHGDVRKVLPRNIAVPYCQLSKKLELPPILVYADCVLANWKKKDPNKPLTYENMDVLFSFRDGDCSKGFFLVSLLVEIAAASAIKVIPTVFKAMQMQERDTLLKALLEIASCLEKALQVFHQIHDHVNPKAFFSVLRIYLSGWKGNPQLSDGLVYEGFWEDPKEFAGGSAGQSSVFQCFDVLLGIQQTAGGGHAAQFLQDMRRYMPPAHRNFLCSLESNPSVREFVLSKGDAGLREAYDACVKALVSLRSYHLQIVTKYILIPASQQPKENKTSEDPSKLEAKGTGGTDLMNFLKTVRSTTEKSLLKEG

| SMILES | IC50 (IDO1 [1]) | IC50 (TDO; [3]) | IC50 (IDO1 [2]) | IC50 (TDO) |
| --- | --- | --- | --- | --- |
| CC1CC1NC(=O)C1(c2ccc(NC(=O)c3cccc(Cl)c3)cc2)COC1 (single isomer, unassigned) [Example 8, 3-{4-[(3-chlrobenzene-1-carbonyl)amino]phenyl}-N-(2-methylcyclo-propyl)oxetane-3-carboxamide] | – | – | 85 nM | ≥ 10000 nM |
| CC1CC1NC(=O)C1(c2ccc(NC(=O)c3cccc(Cl)c3)cc2)COC1 (single isomer, unassigned) [Example 9, 3-{4-[(3-chlorobenzene-1-carbonyl)amino]phenyl}-N-(2-methylcyclo-propyl)oxetane-3-carboxamide] | – | ≥ 10000 nM | 216 nM | – |
| CC1CC1NC(=O)C1(c2ccc(NC(=O)c3cccc(Cl)c3)cc2)COC1 (single isomer, unassigned) [Example 10, 3-{4-[(3-chlorobenzene-1-carbonyl)amino]phenyl}-N-(2-methylcyclo-propyl)oxetane-3-carboxamide] | – | ≥ 10000 nM | 352 nM | – |
| O=C(Nc1ccc(C2(C(=O)NCCC(F)(F)F)COC2)cc1)c1cccc(Cl)c1 [Example 6, 3-{4-[(3-chlorobenzene-1-carbonyl)amino]phenyl}-N-(3,3,3-trifluoropropyl)oxetane-3-carboxamide] | – | – | 51 nM | ≥ 10000 nM |
| O=C(Nc1ccc(C2(C(=O)NCC3CC3)COC2)cc1)c1cccc(Cl)c1 [Example 7, 3-{4-[(3-chlorobenzene-1-carbonyl)amino]phenyl}-N-(cyclopropyl-methyl)oxetane-3-carboxamide] | – | – | 56 nM | ≥ 10000 nM |
| Cc1cc(C2(C(=O)Nc3ccc(F)cc3)COC2)ncc1NC(=O)c1cccc(C#N)c1 [Example 18, 3-{5-[(3-cyanobenzene-1-carbonyl)amino]-4-methylpyridin-2-yl}-N-(4-fluorophenyl)oxetane-3-carboxamide] | – | – | 58 nM | – |
| Cc1cc(NC(=O)c2cccc(Cl)c2)cnc1C1(C(=O)Nc2ccc(F)cc2)COC1 [Example 19, 3-{5-[(3-chlorobenzene-1-carbonyl)amino]-3-methylpyridin-2-yl}-N-(4-fluorophenyl)oxetane-3-carboxamide] | – | – | 205 nM | – |

The next molecules have a lower IC50 (IDO1 [2]) than those just listed; values first:

| IC50 (IDO1 [1]) | IC50 (TDO; [3]) | IC50 (IDO1 [2]) | IC50 (TDO) | SMILES |
| --- | --- | --- | --- | --- |
| 324 nM | ≥ 10000 nM | 12 nM | – | CC1CC1NC(=O)C1(c2ccc(NC(=O)c3cccc(Cl)c3)cc2)COC1 (single isomer, unassigned) [Example 4, 3-{4-[(3-chlorobenzene-1-carbonyl)amino]phenyl}-N-(2-methylcyclopropyl)oxetane-3-carboxamide] |
| – | – | 3 nM | ≥ 10000 nM | O=C(Nc1ccc(C2(C(=O)Nc3ccc(F)cc3)COC2)cc1)c1cccc(Cl)c1F [Example 3, 3-{4-[(3-chloro-2-fluorobenzene-1-carbonyl)amino]phenyl}-N-(4-fluorophenyl)oxetane-3-carboxamide] |
| 1530 nM | – | 25 nM | – | CCCNC(=O)C1(c2ccc(NC(=O)c3cccc(Cl)c3)cc2)COC1 [Example 5, 3-{4-[(3-chlorobenzene-1-carbonyl)amino]phenyl}-N-propyloxetane-3-carboxamide] |
| – | – | 6 nM | – | Cc1cc(C2(C(=O)Nc3ccc(F)cc3)COC2)ncc1NC(=O)c1cccc(Cl)c1 [Example 17, 3-{5-[(3-chlorobenzene-1-carbonyl)amino]-4-methylpyridin-2-yl}-N-(4-fluorophenyl)oxetane-3-carboxamide] |
| 438 nM | – | 3 nM | – | N#Cc1cccc(C(=O)Nc2ccc(C3(C(=O)Nc4ccc(F)cc4)COC3)nc2)c1 [Example 20, 3-{5-[(3-cyanobenzene-1-carbonyl)amino]pyridin-2-yl}-N-(4-fluorophenyl)oxetane-3-carboxamide] |
